Data taken from patent US20150329864A1, “DESIGN OF OLIGONUCLEOTIDE ANALOGS AS THERAPEUTIC AGENTS” (SPRING BANK PHARMACEUTICALS, INC., priority 2010, published 2015).
Entries after “also recorded” stand apart in the source; their conditions may differ.

Columns and labels:
hepatitis B virus (HBV) = experiment: Effect of i.p. administration on hepatitis B virus in transgenic mice; type: in vivo
Procedure: Compound 5 was evaluated in transgenic mice expressing hepatitis B virus (HBV). […] Its activity was also similar to the adefovir dipivoxil (ADV) anti-HBV activity; however, the two compounds seemed to suppress different HBV DNA species. […] In contrast, Compound 5 appeared to indiscriminately remose all HBV DNA species, including the bands typically left by ADV, which may reflect a different mechanism of action other than classical chain termination. Serum HBe, liver HBs, and HBc were not affected by Compound 5 treatment, which is consistent in transgenic mice with compounds that block viral synthesis “downstream” from mRNA synthesis, such as blockage of polymerase activities. A minimal effective dosage was determined to be between 1.6-0.5 mg/kg/day, which was similar to ADV minimal effective dosage of 1.0 mg/kg/day (Table 8).

RIG-I = target: T1, RIG-I (Homo sapiens, UniProt O95786); experiment: RIG-I translocation on dsRNA, single-molecule PIFE assay; type: biochemical
T1 sequence (O95786 1-925): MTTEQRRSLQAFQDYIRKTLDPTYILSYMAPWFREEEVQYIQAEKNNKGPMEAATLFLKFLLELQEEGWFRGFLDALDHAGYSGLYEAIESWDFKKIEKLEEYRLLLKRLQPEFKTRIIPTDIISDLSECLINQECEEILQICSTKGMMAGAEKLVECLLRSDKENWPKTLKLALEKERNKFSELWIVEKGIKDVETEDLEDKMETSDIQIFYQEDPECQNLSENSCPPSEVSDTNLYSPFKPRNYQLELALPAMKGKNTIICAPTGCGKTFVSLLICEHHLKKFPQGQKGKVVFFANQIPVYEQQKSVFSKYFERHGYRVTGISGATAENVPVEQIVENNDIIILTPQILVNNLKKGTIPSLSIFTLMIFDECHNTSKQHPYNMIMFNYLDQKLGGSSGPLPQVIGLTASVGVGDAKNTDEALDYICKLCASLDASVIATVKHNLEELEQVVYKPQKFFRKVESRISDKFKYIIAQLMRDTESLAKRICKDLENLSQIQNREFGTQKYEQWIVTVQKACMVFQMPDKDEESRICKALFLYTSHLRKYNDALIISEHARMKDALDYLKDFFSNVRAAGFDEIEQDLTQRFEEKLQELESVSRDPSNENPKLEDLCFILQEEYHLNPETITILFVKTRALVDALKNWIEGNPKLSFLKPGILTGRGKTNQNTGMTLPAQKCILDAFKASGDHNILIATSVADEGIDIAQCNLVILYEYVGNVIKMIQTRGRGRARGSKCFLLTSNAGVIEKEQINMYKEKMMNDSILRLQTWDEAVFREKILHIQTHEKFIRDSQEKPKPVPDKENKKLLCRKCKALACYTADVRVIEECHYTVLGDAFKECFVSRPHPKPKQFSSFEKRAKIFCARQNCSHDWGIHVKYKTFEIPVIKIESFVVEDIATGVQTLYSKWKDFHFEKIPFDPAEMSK
Procedure: An in vitro single-molecule fluorescence assay termed PIFE (protein induced fluorescence enhancement) was employed to monitor such movement (Myong, S. et al., Science, 323, 1070, 2009).
For quantitation of RIG-I translocation, Single molecule PIFE yields were estimated. Single molecule PIFE yields are obtained from several hundred molecules simultaneously, allowing statistically reliable data collection.
The translocation as above was carried out using different concentrations of nucleotide compound.
A standard dsRNA (25 bp) was used as a main substrate for RIG-I translocation assay. […] The ratio between rapid (stimulated) translocation and slow translocation would be accounted for in the estimation of compound strength. In order to quantify the affinity of the compound to RIG-I or to RNA substrate, various concentrations of the compound (1-100 μM range) were used in the assay. This enabled the calculation of the association/dissociation constant for each compound, which was a useful measure to apply in cell-based evaluation of compound potency.
The same translocation assay was used on dsRNA, which contains […] moiety with and without the compound.

macrophages = type: cell-based
[1] = tested on: HCV replicon H/FL-Neo (genotype 1a (H77), full length construct); experiment: Secondary anti-HCV assay, replicon H/FL-Neo; type: cell-based; details: Hepatitis C virus
From the text: This assay assesses activity against additional genotypes using the format described for the primary assay. Activity against the genotype 1b HCV was included for comparison. A replicon cell line containing H/FL-Neo (genotype 1a (H77), full length construct) (Blight, et al., 2003, J. Virol. 77:3181) was used.

[2] = 100 mg/kg/d i.p. once daily 14 days, group listed with C:E:S vehicle
[3] = 100 mg/kg/d i.p. once daily 14 days, group listed with saline placebo

For `CO[C@H]1C(OP(=O)(S)OC[C@H]2O[C@@H](n3cnc4c(N)ncnc43)CC2O)[C@@H](CO)O[C@H]1n1ccc(=O)[nH]c1=O` (stereo partly drawn) [Compound 5, 3-dApsU2′-OMe], the “Liver HBV DNA (mean pg viral/μg cellular DNA ± stdev)” value (hepatitis B virus (HBV); [2]) was 1.7 ± 1.5 (9) pg viral/μg cellular DNA, the “Liver HBV RNA (mean relative units ± stdev)” value (hepatitis B virus (HBV); [2]) was 1.7 ± 0.3 relative units and the “Liver HBeAg (mean stained cells/100 × field ± stdev)” value (hepatitis B virus (HBV); [2]) was 24 ± 15 stained cells/100 × field. For the same molecule, the “Serum HBV DNA (mean log10 genome equivalents/mL serum ± stdev)” value (hepatitis B virus (HBV); [2]) was 5.4 ± 0.6 (7) log10 genome equivalents/mL serum, the “Serum HBeAg (mean ng/mL ± stdev)” value (hepatitis B virus (HBV); [2]) was 1241 ± 279 ng/mL and the “Serum HBsAg (mean ng/mL ± stdev)” value (hepatitis B virus (HBV); [2]) was 28 ± 15 ng/mL. The “Liver HBV DNA (mean pg viral/μg cellular DNA ± stdev)” value (hepatitis B virus (HBV); [3]) was 0.3 ± 0.4 (8) pg viral/μg cellular DNA, the “Serum HBV DNA (mean log10 genome equivalents/mL serum ± stdev)” value (hepatitis B virus (HBV); [3]) was 5.0 ± 0.3 (8) log10 genome equivalents/mL serum and the “effect on liver HBV DNA” value (hepatitis B virus (HBV); i.p. once daily 14 days, 100 mg/kg/day, saline or cremaphor:ethanol:saline vehicles) was “significantly reduced liver HBV DNA”. The “effect on serum HBe, liver HBs, and HBc” value (hepatitis B virus (HBV); i.p. treatment) was “not affected”, the “RIG-I translocation on dsRNA (activity in words)” value (RIG-I; PIFE assay) was “rapid translocation on dsRNA in a dose-dependent manner; also recorded: strong activators of RIG-I translocation” and the “proportion of fast RIG-I translocation” value (RIG-I; concentration increased from 5 μM up to 170 μM) was “corresponding increase in the proportion of fast translocation”. The “induction of IL-2” value (macrophages) was “showed induction of IL-2”.

For `CO[C@H]1C(OP(=O)(OC[C@H]2O[C@@H](n3cnc4c(N)ncnc43)CC2O)SCOC(=O)OC(C)C)[C@@H](CO)O[C@H]1n1ccc(=O)[nH]c1=O` (stereo partly drawn) [Compound 6k], the EC50 [1] was 1 µM and the EC90 [1] was roughly 6 µM.
